Measurements published in ChEMBL document CHEMBL1201861, “Genomics of Drug Sensitity in Cancer screening data, Wellcome Trust Sanger Institute”.

What was measured:
Assay in all cases: cells
Conditions in all cases: Homo sapiens
[1] = test system: CPC-N; format: functional, cell-based;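 further: growth inhibition of CPC-N cells, with a cell viability assay as the readout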
Description: SANGER: Inhibition of human CPC-N cell growth in a cell viability assay.

[2] = test system: Ca-Ski; format: functional, cell-based;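 further: cell viability assay measuring inhibition of Ca-Ski cell growth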
Description: SANGER: Inhibition of human Ca-Ski cell growth in a cell viability assay.

[3] = test system: Ca9-22; format: functional, cell-based;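 further: growth inhibition of Ca9-22 cells, read out with a cell viability assay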
Description: SANGER: Inhibition of human Ca9-22 cell growth in a cell viability assay.

[4] = test system: DMS-153; format: functional, cell-based
Description: SANGER: Inhibition of human DMS-153 cell growth in a cell viability assay.

[5] = test system: EFO-21; format: functional, cell-based;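 further: growth inhibition of EFO-21 cells measured with a viability assay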
Description: SANGER: Inhibition of human EFO-21 cell growth in a cell viability assay.

[6] = test system: GAMG; format: functional, cell-based;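 further: cell growth inhibition measured by a viability assay in the GAMG human cell line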
Description: SANGER: Inhibition of human GAMG cell growth in a cell viability assay.

[7] = test system: GCT; format: functional, cell-based;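 further: GCT cell line proliferation inhibition, read out with a cell viability assay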
Description: SANGER: Inhibition of human GCT cell growth in a cell viability assay.

[8] = test system: GMS-10; format: functional, cell-based;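 further: growth inhibition of GMS-10 cells, read out as cell viability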
Description: SANGER: Inhibition of human GMS-10 cell growth in a cell viability assay.

[9] = test system: HCC1806; format: functional, cell-based;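 further: growth inhibition of the cancer cell line, determined with a cell viability assay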
Description: SANGER: Inhibition of human HCC1806 cell growth in a cell viability assay.

[10] = test system: HCC1954; format: functional, cell-based;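 further: growth inhibition of human HCC1954 cells, read out with a cell viability assay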
Description: SANGER: Inhibition of human HCC1954 cell growth in a cell viability assay.

[11] = test system: HGC-27; format: functional, cell-based;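 further: growth inhibition of human HGC-27 cells, read out in a cell viability assay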
Description: SANGER: Inhibition of human HGC-27 cell growth in a cell viability assay.

[12] = test system: HT-29; format: functional, cell-based;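 further: growth inhibition of human HT-29 cells, read out by a cell viability assay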
Description: SANGER: Inhibition of human HT-29 cell growth in a cell viability assay.

[13] = test system: HTC-C3; format: functional, cell-based;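 further: inhibition of cell growth, read out with a cell viability assay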
Description: SANGER: Inhibition of human HTC-C3 cell growth in a cell viability assay.

[14] = test system: Huh-7; format: functional, cell-based;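 further: HuH-7 cell growth inhibition, read out with a cell viability assay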
Description: SANGER: Inhibition of human HuH-7 cell growth in a cell viability assay.

[15] = test system: HuO-3N1; format: functional, cell-based;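 further: cell viability readout used to measure how strongly compounds suppress proliferation of human HuO-3N1 cells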
Description: SANGER: Inhibition of human HuO-3N1 cell growth in a cell viability assay.

[16] = test system: HuP-T3; format: functional, cell-based;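 further: HuP-T3 cell growth inhibition, read out with a cell viability assay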
Description: SANGER: Inhibition of human HuP-T3 cell growth in a cell viability assay.

[17] = test system: J82; format: functional, cell-based;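 further: growth inhibition of J82 cells, read out with a cell viability assay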
Description: SANGER: Inhibition of human J82 cell growth in a cell viability assay.

[18] = test system: JEG-3; format: functional, cell-based;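 further: growth inhibition of human JEG-3 cells, read out with a cell viability assay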
Description: SANGER: Inhibition of human JEG-3 cell growth in a cell viability assay.

[19] = test system: K052; format: functional, cell-based;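 further: Read-out from a cell viability assay, IC50 reflecting suppression of K052 cell growth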
Description: SANGER: Inhibition of human K052 cell growth in a cell viability assay.

[20] = test system: KYSE-410; format: functional, cell-based;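 further: growth inhibition of KYSE-410 cells, measured through a cell viability readout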
Description: SANGER: Inhibition of human KYSE-410 cell growth in a cell viability assay.

[21] = test system: KYSE-450; format: functional, cell-based;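 further: cell growth inhibition measured by a viability assay in human KYSE-450 cells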
Description: SANGER: Inhibition of human KYSE-450 cell growth in a cell viability assay.

[22] = test system: KYSE-510; format: functional, cell-based;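 further: cell viability readout used to measure how strongly growth of the cell line is suppressed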
Description: SANGER: Inhibition of human KYSE-510 cell growth in a cell viability assay.

[23] = test system: LK-2; format: functional, cell-based;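 further: growth inhibition of LK-2 cells, read out with a viability assay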
Description: SANGER: Inhibition of human LK-2 cell growth in a cell viability assay.

[24] = test system: LU-165; format: functional, cell-based
Description: SANGER: Inhibition of human LU-165 cell growth in a cell viability assay.

[25] = test system: MKN-1; format: functional, cell-based;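 further: growth inhibition of human MKN1 cells, read out by a cell viability measurement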
Description: SANGER: Inhibition of human MKN1 cell growth in a cell viability assay.

[26] = test system: NCI-H1792; format: functional, cell-based;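 further: growth inhibition of human NCI-H1792 cells, read out as cell viability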
Description: SANGER: Inhibition of human NCI-H1792 cell growth in a cell viability assay.

[27] = test system: NCI-H1963; format: functional, cell-based;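 further: cell growth inhibition of the human line, determined with a cell viability assay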
Description: SANGER: Inhibition of human NCI-H1963 cell growth in a cell viability assay.

[28] = test system: NCI-H2141; format: functional, cell-based;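 further: growth inhibition of human NCI-H2141 cells, read out with a cell viability assay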
Description: SANGER: Inhibition of human NCI-H2141 cell growth in a cell viability assay.

[29] = test system: NCI-H2171; format: functional, cell-based;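 further: growth inhibition of human NCI-H2171 cells, read out by a cell viability assay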
Description: SANGER: Inhibition of human NCI-H2171 cell growth in a cell viability assay.

[30] = test system: NCI-H2405; format: functional, cell-based;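 further: growth inhibition of the human cell line, read out with a cell viability assay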
Description: SANGER: Inhibition of human NCI-H2405 cell growth in a cell viability assay.

[31] = test system: NCI-H292; format: functional, cell-based;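 further: growth inhibition of NCI-H292 cells, read out with a cell viability assay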
Description: SANGER: Inhibition of human NCI-H292 cell growth in a cell viability assay.

[32] = test system: NCI-H345; format: functional, cell-based;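 further: growth inhibition of NCI-H345 cells measured with a cell viability assay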
Description: SANGER: Inhibition of human NCI-H345 cell growth in a cell viability assay.

[33] = test system: NCI-H727; format: functional, cell-based;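 further: growth inhibition of human NCI-H727 cells, read out with a cell viability assay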
Description: SANGER: Inhibition of human NCI-H727 cell growth in a cell viability assay.

[34] = test system: NCI-N87; format: functional, cell-based;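 further: growth inhibition of human NCI-N87 cells, read out with a cell viability assay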
Description: SANGER: Inhibition of human NCI-N87 cell growth in a cell viability assay.

[35] = test system: OE19; format: functional, cell-based;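 further: growth inhibition of OE19 cells, measured through a cell viability read-out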
Description: SANGER: Inhibition of human OE19 cell growth in a cell viability assay.

[36] = test system: P31-FUJ; format: functional, cell-based;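 further: growth inhibition of P31-FUJ cells, read out with a viability assay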
Description: SANGER: Inhibition of human P31-FUJ cell growth in a cell viability assay.

[37] = test system: PA-1; format: functional, cell-based;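 further: IC50 for suppression of PA-1 cell proliferation, determined with a cell viability read-out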
Description: SANGER: Inhibition of human PA-1 cell growth in a cell viability assay.

[38] = test system: RCM-1; format: functional, cell-based;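 further: growth inhibition of the RCM-1 line, determined with a cell viability readout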
Description: SANGER: Inhibition of human RCM-1 cell growth in a cell viability assay.

[39] = test system: RD; format: functional, cell-based
Description: SANGER: Inhibition of human RD cell growth in a cell viability assay.

[40] = test system: RPMI-7951; format: functional, cell-based
Description: SANGER: Inhibition of human RPMI-7951 cell growth in a cell viability assay.

[41] = test system: SAS; format: functional, cell-based;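 further: growth inhibition of SAS cells, read out with a cell viability assay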
Description: SANGER: Inhibition of human SAS cell growth in a cell viability assay.

[42] = test system: SCC-25; format: functional, cell-based;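 further: growth inhibition of SCC-25 cells, measured with a cell viability assay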
Description: SANGER: Inhibition of human SCC-25 cell growth in a cell viability assay.

[43] = test system: SIG-M5; format: functional, cell-based;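 further: cell viability assay read-out, measuring how strongly growth of cultured human SIG-M5 cells is inhibited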
Description: SANGER: Inhibition of human SIG-M5 cell growth in a cell viability assay.

[44] = test system: SK-HEP1; format: functional, cell-based, SK-HEP-1;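 further: cell viability readout used to quantify reduction in proliferation of human SK-HEP-1 cells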
Description: SANGER: Inhibition of human SK-HEP-1 cell growth in a cell viability assay.

[45] = test system: SK-MEL3; format: functional, cell-based, SK-MEL-3;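 further: growth inhibition of human SK-MEL-3 cells, read out with a cell viability assay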
Description: SANGER: Inhibition of human SK-MEL-3 cell growth in a cell viability assay.

[46] = test system: SNU-449; format: functional, cell-based
Description: SANGER: Inhibition of human SNU-449 cell growth in a cell viability assay.

[47] = test system: SNU-C1; format: functional, cell-based;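 further: growth inhibition of SNU-C1 human cells, read out by a cell viability assay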
Description: SANGER: Inhibition of human SNU-C1 cell growth in a cell viability assay.

[48] = test system: SW1417; format: functional, cell-based;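 further: growth inhibition of human SW1417 cells, read out with a cell viability assay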
Description: SANGER: Inhibition of human SW1417 cell growth in a cell viability assay.

[49] = test system: SW1710; format: functional, cell-based;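 further: growth inhibition of SW1710 cells, determined with a cell viability assay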
Description: SANGER: Inhibition of human SW1710 cell growth in a cell viability assay.

[50] = test system: ABC-1; format: functional, cell-based;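 further: growth inhibition of human ABC-1 cells, read out by a cell viability assay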
Description: SANGER: Inhibition of human ABC-1 cell growth in a cell viability assay.

[51] = test system: ARH-77; format: functional, cell-based;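 further: growth inhibition of ARH-77 cells, read out by a cell viability assay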
Description: SANGER: Inhibition of human ARH-77 cell growth in a cell viability assay.

[52] = test system: BPH-1; format: functional, cell-based
Description: SANGER: Inhibition of human BPH-1 cell growth in a cell viability assay.

[53] = test system: C-33-A; format: functional, cell-based
Description: SANGER: Inhibition of human C-33-A cell growth in a cell viability assay.

[54] = test system: CA46; format: functional, cell-based
Description: SANGER: Inhibition of human CA46 cell growth in a cell viability assay.

[55] = test system: CAL-120; format: functional, cell-based
Description: SANGER: Inhibition of human CAL-120 cell growth in a cell viability assay.

[56] = test system: CAL-39; format: functional, cell-based
Description: SANGER: Inhibition of human CAL-39 cell growth in a cell viability assay.

[57] = test system: CAL-72; format: functional, cell-based
Description: SANGER: Inhibition of human CAL-72 cell growth in a cell viability assay.

[58] = test system: TGW; format: functional, cell-based
Description: SANGER: Inhibition of human TGW cell growth in a cell viability assay.

[59] = test system: THP-1; format: functional, cell-based
Description: SANGER: Inhibition of human THP-1 cell growth in a cell viability assay.

[60] = test system: U2OS; format: functional, cell-based, U-2-OS
Description: SANGER: Inhibition of human U-2-OS cell growth in a cell viability assay.

[61] = test system: U-698-M; format: functional, cell-based
Description: SANGER: Inhibition of human U-698-M cell growth in a cell viability assay.

[62] = test system: U-251; format: functional, cell-based
Description: SANGER: Inhibition of human U251 cell growth in a cell viability assay.

[63] = test system: UMUC3; format: functional, cell-based
Description: SANGER: Inhibition of human UM-UC-3 cell growth in a cell viability assay.

[64] = test system: YKG-1; format: functional, cell-based
Description: SANGER: Inhibition of human YKG-1 cell growth in a cell viability assay.

[65] = test system: COLO-678; format: functional, cell-based
Description: SANGER: Inhibition of human COLO-678 cell growth in a cell viability assay.

CCNC(=O)c1noc(-c2cc(C(C)C)c(O)cc2O)c1-c1ccc(CN2CCOCC2)cc1 [LUMINESPIB]
IC50 [1]: > 256 nM | IC50 [2]: 37.8 nM | IC50 [3]: 28 nM | IC50 [4]: 77.3 nM | IC50 [5]: 89.9 nM | IC50 [6]: 13.7 nM | IC50 [7]: 41.6 nM | IC50 [8]: 134 nM | IC50 [9]: 111 nM | IC50 [10]: > 256 nM | IC50 [11]: 17.6 nM | IC50 [12]: 43.6 nM | IC50 [13]: 26.1 nM | IC50 [14]: 70.3 nM | IC50 [15]: > 0.256 µM | IC50 [16]: 16.5 nM | IC50 [17]: 30.1 nM | IC50 [18]: 95.1 nM | IC50 [19]: 171 nM | IC50 [20]: 15.9 nM | IC50 [21]: 13.5 nM | IC50 [22]: 14.4 nM | IC50 [23]: 102 nM | IC50 [24]: 154 nM | IC50 [25]: 49.3 nM | IC50 [26]: 45.8 nM | IC50 [27]: 51.8 nM | IC50 [28]: 238 nM | IC50 [29]: 186 nM | IC50 [30]: 28.9 nM | IC50 [31]: 17.1 nM | IC50 [32]: > 0.256 µM | IC50 [33]: 10.3 nM | IC50 [34]: 78 nM | IC50 [35]: 19.5 nM | IC50 [36]: > 0.256 µM | IC50 [37]: 27.6 nM | IC50 [38]: 157 nM | IC50 [39]: 26.6 nM | IC50 [40]: 6.31 nM | IC50 [41]: 92.1 nM | IC50 [42]: 136 nM | IC50 [43]: 4.89 nM | IC50 [44]: 3.36 nM | IC50 [45]: 48 nM | IC50 [46]: 20.3 nM | IC50 [47]: > 256 nM | IC50 [48]: > 256 nM | IC50 [49]: 1.86 nM | IC50 [50]: 87.6 nM | IC50 [51]: 53.9 nM | IC50 [52]: 10.3 nM | IC50 [53]: 15.1 nM | IC50 [54]: 54.3 nM | IC50 [55]: 0.0424 µM | IC50 [56]: 14.2 nM | IC50 [57]: 166 nM | IC50 [58]: 165 nM | IC50 [59]: 153 nM | IC50 [60]: 39.4 nM | IC50 [61]: 73.8 nM | IC50 [62]: 47.6 nM | IC50 [63]: 49.5 nM | IC50 [64]: 11.6 nM | IC50 [65]: > 256 nM

CO[C@@]12[C@H](COC(N)=O)C3=C(C(=O)C(C)=C(N)C3=O)N1C[C@@H]1N[C@@H]12 [MITOMYCIN]
IC50 [1]: 381 nM | IC50 [2]: 53.8 nM | IC50 [3]: 156 nM | IC50 [4]: 425 nM | IC50 [5]: 591 nM | IC50 [6]: 428 nM | IC50 [7]: 4600 nM | IC50 [8]: 3840 nM | IC50 [9]: 135 nM | IC50 [10]: 2280 nM | IC50 [11]: 49.3 nM | IC50 [12]: 36 nM | IC50 [13]: 5790 nM | IC50 [14]: 3220 nM | IC50 [15]: 6.45 µM | IC50 [16]: 711 nM | IC50 [17]: < 62.5 nM | IC50 [18]: 2230 nM | IC50 [19]: 149 nM | IC50 [20]: 584 nM | IC50 [21]: 563 nM | IC50 [22]: < 62.5 nM | IC50 [23]: 358 nM | IC50 [24]: 513 nM | IC50 [25]: 541 nM | IC50 [26]: 697 nM | IC50 [27]: 974 nM | IC50 [28]: 853 nM | IC50 [29]: 1500 nM | IC50 [30]: 294 nM | IC50 [31]: 884 nM | IC50 [32]: 4.73 µM | IC50 [33]: 212 nM | IC50 [34]: 438 nM | IC50 [35]: 365 nM | IC50 [36]: 3.46 µM | IC50 [37]: 23.5 nM | IC50 [38]: 847 nM | IC50 [39]: 1900 nM | IC50 [40]: 168 nM | IC50 [41]: 615 nM | IC50 [42]: 870 nM | IC50 [43]: < 62.5 nM | IC50 [44]: 646 nM | IC50 [45]: 711 nM | IC50 [46]: 3360 nM | IC50 [47]: 1910 nM | IC50 [48]: 1010 nM | IC50 [49]: 72.6 nM | IC50 [50]: 61.2 nM | IC50 [51]: 243 nM | IC50 [52]: 29.9 nM | IC50 [53]: 487 nM | IC50 [54]: 1020 nM | IC50 [55]: 5.96 µM | IC50 [56]: 46.5 nM | IC50 [57]: > 16000 nM | IC50 [58]: 2760 nM | IC50 [59]: 596 nM | IC50 [60]: > 16000 nM | IC50 [61]: 1600 nM | IC50 [62]: 129 nM | IC50 [63]: 102 nM | IC50 [64]: 545 nM | IC50 [65]: 2890 nM
